In ChEMBL document CHEMBL1201861, “Genomics of Drug Sensitity in Cancer screening data, Wellcome Trust Sanger Institute”:

Experiments:
Experiment in all cases: cells
[1] = tested on: Ca9-22; assay type: functional, cell-based, Homo sapiens; conditions: Homo sapiens, Ca9-22;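 also: growth inhibition of Ca9-22 cells, read out with a cell viability assay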
Description: SANGER: Inhibition of human Ca9-22 cell growth in a cell viability assay.

[2] = tested on: D-502MG; assay type: functional, cell-based, Homo sapiens; conditions: Homo sapiens, D-502MG
Description: SANGER: Inhibition of human D-502MG cell growth in a cell viability assay.

[3] = tested on: GI-ME-N; assay type: functional, cell-based, Homo sapiens; conditions: Homo sapiens, GI-ME-N;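 also: growth inhibition of human GI-ME-N cells, read out with a cell viability assay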
Description: SANGER: Inhibition of human GI-ME-N cell growth in a cell viability assay.

[4] = tested on: HCC1806; assay type: functional, cell-based, Homo sapiens; conditions: Homo sapiens, HCC1806;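 also: growth inhibition of the cancer cell line, determined with a cell viability assay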
Description: SANGER: Inhibition of human HCC1806 cell growth in a cell viability assay.

[5] = tested on: HCC1954; assay type: functional, cell-based, Homo sapiens; conditions: Homo sapiens, HCC1954;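 also: growth inhibition of human HCC1954 cells, read out with a cell viability assay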
Description: SANGER: Inhibition of human HCC1954 cell growth in a cell viability assay.

[6] = tested on: HT-1080; assay type: functional, cell-based, Homo sapiens; conditions: Homo sapiens, HT-1080
Description: SANGER: Inhibition of human HT-1080 cell growth in a cell viability assay.

[7] = tested on: JVM-3; assay type: functional, cell-based; conditions: Homo sapiens;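 also: growth inhibition of human JVM-3 cells, read out with a cell viability assay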
Description: SANGER: Inhibition of human JVM-3 cell growth in a cell viability assay.

[8] = tested on: KALS-1; assay type: functional, cell-based, Homo sapiens; conditions: Homo sapiens, KALS-1;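 also: growth inhibition of KALS-1 cells, determined with a cell viability assay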
Description: SANGER: Inhibition of human KALS-1 cell growth in a cell viability assay.

[9] = tested on: KP-N-YN; assay type: functional, cell-based; conditions: Homo sapiens;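 also: growth inhibition of KP-N-YN cells, read out with a cell viability assay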
Description: SANGER: Inhibition of human KP-N-YN cell growth in a cell viability assay.

[10] = tested on: KS-1; assay type: functional, cell-based, Homo sapiens; conditions: Homo sapiens, KS-1;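 also: growth inhibition of KS-1 cells, read out with a cell viability assay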
Description: SANGER: Inhibition of human KS-1 cell growth in a cell viability assay.

[11] = tested on: KU-19-19; assay type: functional, cell-based, Homo sapiens; conditions: Homo sapiens, KU-19-19
Description: SANGER: Inhibition of human KU-19-19 cell growth in a cell viability assay.

[12] = tested on: KYSE-270; assay type: functional, cell-based, Homo sapiens; conditions: Homo sapiens, KYSE-270;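 also: cell growth inhibition measured with a viability assay in the human KYSE-270 line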
Description: SANGER: Inhibition of human KYSE-270 cell growth in a cell viability assay.

[13] = tested on: L-363; assay type: functional, cell-based; conditions: Homo sapiens
Description: SANGER: Inhibition of human L-363 cell growth in a cell viability assay.

[14] = tested on: MC-IXC; assay type: functional, cell-based, Homo sapiens; conditions: Homo sapiens, MC-IXC;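 also: growth inhibition of MC-IXC cells, read out with a cell viability assay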
Description: SANGER: Inhibition of human MC-IXC cell growth in a cell viability assay.

[15] = tested on: MEL-HO; assay type: functional, cell-based, Homo sapiens; conditions: Homo sapiens, MEL-HO
Description: SANGER: Inhibition of human MEL-HO cell growth in a cell viability assay.

[16] = tested on: MHH-NB-11; assay type: functional, cell-based, Homo sapiens; conditions: Homo sapiens, MHH-NB-11;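 also: growth inhibition of human MHH-NB-11 cells, read out by a cell viability assay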
Description: SANGER: Inhibition of human MHH-NB-11 cell growth in a cell viability assay.

[17] = tested on: MIA PaCa-2; assay type: functional, cell-based, Homo sapiens; conditions: Homo sapiens, MIA PaCa-2;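 also: growth inhibition of MIA PaCa-2 cells, read out with a cell viability assay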
Description: SANGER: Inhibition of human MIA-PaCa-2 cell growth in a cell viability assay.

[18] = tested on: MOLT-16; assay type: functional, cell-based; conditions: Homo sapiens;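 also: growth inhibition of human MOLT-16 cells, read out with a cell viability assay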
Description: SANGER: Inhibition of human MOLT-16 cell growth in a cell viability assay.

[19] = tested on: MZ7-mel; assay type: functional, cell-based, Homo sapiens; conditions: Homo sapiens, MZ7-mel;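 also: growth inhibition of human MZ7-mel cells, measured by a cell viability assay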
Description: SANGER: Inhibition of human MZ7-mel cell growth in a cell viability assay.

[20] = tested on: NCI-H1437; assay type: functional, cell-based, Homo sapiens; conditions: Homo sapiens, NCI-H1437;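 also: growth inhibition of human NCI-H1437 cells, read out by a cell viability assay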
Description: SANGER: Inhibition of human NCI-H1437 cell growth in a cell viability assay.

[21] = tested on: NCI-H1623; assay type: functional, cell-based, Homo sapiens; conditions: Homo sapiens, NCI-H1623;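 also: cell viability assay used as the read-out for growth inhibition of NCI-H1623 cells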
Description: SANGER: Inhibition of human NCI-H1623 cell growth in a cell viability assay.

[22] = tested on: NCI-H1770; assay type: functional, cell-based; conditions: Homo sapiens;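 also: growth inhibition of NCI-H1770 cells determined with a viability readout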
Description: SANGER: Inhibition of human NCI-H1770 cell growth in a cell viability assay.

[23] = tested on: NCI-H1793; assay type: functional, cell-based, Homo sapiens; conditions: Homo sapiens, NCI-H1793;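 also: cell growth inhibition, read out by a cell viability assay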
Description: SANGER: Inhibition of human NCI-H1793 cell growth in a cell viability assay.

[24] = tested on: NCI-H292; assay type: functional, cell-based, Homo sapiens; conditions: Homo sapiens, NCI-H292;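 also: growth inhibition of NCI-H292 cells, read out with a cell viability assay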
Description: SANGER: Inhibition of human NCI-H292 cell growth in a cell viability assay.

[25] = tested on: NCI-H358; assay type: functional, cell-based, Homo sapiens; conditions: Homo sapiens, NCI-H358;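 also: growth inhibition of NCI-H358 human cells, read out with a cell viability assay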
Description: SANGER: Inhibition of human NCI-H358 cell growth in a cell viability assay.

[26] = tested on: NCI-H69; assay type: functional, cell-based; conditions: Homo sapiens;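 also: growth inhibition of the cell line, read out with a cell viability assay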
Description: SANGER: Inhibition of human NCI-H69 cell growth in a cell viability assay.

[27] = tested on: NCI-N87; assay type: functional, cell-based, Homo sapiens; conditions: Homo sapiens, NCI-N87;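 also: growth inhibition of human NCI-N87 cells, read out with a cell viability assay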
Description: SANGER: Inhibition of human NCI-N87 cell growth in a cell viability assay.

[28] = tested on: NY; assay type: functional, cell-based, Homo sapiens; conditions: Homo sapiens, NY
Description: SANGER: Inhibition of human NY cell growth in a cell viability assay.

[29] = tested on: OE33; assay type: functional, cell-based, Homo sapiens; conditions: Homo sapiens, OE33;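 also: growth inhibition of human OE33 cells, measured by a cell viability assay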
Description: SANGER: Inhibition of human OE33 cell growth in a cell viability assay.

[30] = tested on: PANC-03-27; assay type: functional, cell-based, Homo sapiens; conditions: Homo sapiens, PANC-03-27
Description: SANGER: Inhibition of human PANC-03-27 cell growth in a cell viability assay.

[31] = tested on: RVH-421; assay type: functional, cell-based, Homo sapiens; conditions: Homo sapiens, RVH-421
Description: SANGER: Inhibition of human RVH-421 cell growth in a cell viability assay.

[32] = tested on: SBC-1; assay type: functional, cell-based; conditions: Homo sapiens;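 also: cell viability assay measuring growth inhibition of the SBC-1 cell line, IC50 being the concentration that halves growth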
Description: SANGER: Inhibition of human SBC-1 cell growth in a cell viability assay.

[33] = tested on: SK-HEP1; assay type: functional, cell-based, Homo sapiens, SK-HEP-1; conditions: Homo sapiens, SK-HEP1;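 also: cell viability readout used to quantify reduction in proliferation of human SK-HEP-1 cells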
Description: SANGER: Inhibition of human SK-HEP-1 cell growth in a cell viability assay.

[34] = tested on: SK-MEL3; assay type: functional, cell-based, Homo sapiens, SK-MEL-3; conditions: Homo sapiens, SK-MEL3;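 also: growth inhibition of human SK-MEL-3 cells, read out with a cell viability assay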
Description: SANGER: Inhibition of human SK-MEL-3 cell growth in a cell viability assay.

[35] = tested on: SN12C; assay type: functional, cell-based, Homo sapiens; conditions: Homo sapiens, SN12C;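 also: growth inhibition of human SN12C cells, measured by a cell viability assay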
Description: SANGER: Inhibition of human SN12C cell growth in a cell viability assay.

[36] = tested on: SNU-449; assay type: functional, cell-based, Homo sapiens; conditions: Homo sapiens, SNU-449
Description: SANGER: Inhibition of human SNU-449 cell growth in a cell viability assay.

[37] = tested on: SW1990; assay type: functional, cell-based, Homo sapiens; conditions: Homo sapiens, SW1990;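 also: cell growth inhibition determined with a viability assay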
Description: SANGER: Inhibition of human SW1990 cell growth in a cell viability assay.

[38] = tested on: T84; assay type: functional, cell-based, Homo sapiens; conditions: Homo sapiens, T84;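 also: growth inhibition measured with a cell viability readout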
Description: SANGER: Inhibition of human T84 cell growth in a cell viability assay.

[39] = tested on: CWR22R; assay type: functional, cell-based, Homo sapiens; conditions: Homo sapiens, 22Rv1;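 also: growth inhibition of 22Rv1 cells, read out with a cell viability assay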
Description: SANGER: Inhibition of human 22RV1 cell growth in a cell viability assay.

[40] = tested on: 639-V; assay type: functional, cell-based, Homo sapiens; conditions: Homo sapiens, 639-V;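 also: growth inhibition of 639-V cells, read out with a cell viability assay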
Description: SANGER: Inhibition of human 639-V cell growth in a cell viability assay.

[41] = tested on: CAKI-1; assay type: functional, cell-based, Homo sapiens; conditions: Homo sapiens, CAKI-1;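 also: growth inhibition of CAKI-1 cells, measured by a cell viability assay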
Description: SANGER: Inhibition of human CAKI-1 cell growth in a cell viability assay.

[42] = tested on: CAL-85-1; assay type: functional, cell-based; conditions: Homo sapiens;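 also: growth inhibition of human CAL-85-1 cells, read out with a cell viability assay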
Description: SANGER: Inhibition of human CAL-85-1 cell growth in a cell viability assay.

[43] = tested on: TE-9; assay type: functional, cell-based, Homo sapiens; conditions: Homo sapiens, TE-9;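 also: cell growth inhibition, measured with a cell viability readout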
Description: SANGER: Inhibition of human TE-9 cell growth in a cell viability assay.

[44] = tested on: TGBC1TKB; assay type: functional, cell-based, Homo sapiens; conditions: Homo sapiens, TGBC1TKB;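 also: growth inhibition of TGBC1TKB cells, read out by a cell viability assay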
Description: SANGER: Inhibition of human TGBC1TKB cell growth in a cell viability assay.

[45] = tested on: UACC-257; assay type: functional, cell-based, Homo sapiens; conditions: Homo sapiens, UACC-257
Description: SANGER: Inhibition of human UACC-257 cell growth in a cell viability assay.

[46] = tested on: VA-ES-BJ; assay type: functional, cell-based, Homo sapiens; conditions: Homo sapiens, VA-ES-BJ;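 also: growth inhibition of the VA-ES-BJ cell line, read out by a cell viability assay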
Description: SANGER: Inhibition of human VA-ES-BJ cell growth in a cell viability assay.

[47] = tested on: CAPAN-1; assay type: functional, cell-based, Homo sapiens; conditions: Homo sapiens, CAPAN-1;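 also: growth suppression of CAPAN-1 cells, read out by a cell viability assay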
Description: SANGER: Inhibition of human CAPAN-1 cell growth in a cell viability assay.

## COc1ccc(-c2ccc3c(N4CCOC[C@@H]4C)nc(N4CCOC[C@@H]4C)nc3n2)cc1CO [AZD-8055]
[1]
  IC50: 0.787 µM
[2]
  IC50: > 2 µM
[3]
  IC50: 1.03 µM
[4]
  IC50: 0.933 µM
[5]
  IC50: > 2 µM
[6]
  IC50: 0.525 µM
[7]
  IC50: 0.463 µM
[8]
  IC50: > 2 µM
[9]
  IC50: > 2 µM
[10]
  IC50: 1.25 µM
[11]
  IC50: 0.851 µM
[12]
  IC50: 1.57 µM
[13]
  IC50: 0.39 µM
[14]
  IC50: 0.727 µM
[15]
  IC50: 0.678 µM
[16]
  IC50: > 2 µM
[17]
  IC50: 0.929 µM
[18]
  IC50: 0.938 µM
[19]
  IC50: > 2 µM
[20]
  IC50: 0.606 µM
[21]
  IC50: 0.763 µM
[22]
  IC50: 0.802 µM
[23]
  IC50: 0.534 µM
[24]
  IC50: 0.292 µM
[25]
  IC50: > 2 µM
[26]
  IC50: 1.67 µM
[27]
  IC50: > 2 µM
[28]
  IC50: > 2 µM
[29]
  IC50: 0.799 µM
[30]
  IC50: 1.03 µM
[31]
  IC50: 0.636 µM
[32]
  IC50: 0.0458 µM
[33]
  IC50: > 2 µM
[34]
  IC50: 1.25 µM
[35]
  IC50: 0.807 µM
[36]
  IC50: 0.959 µM
[37]
  IC50: 1.48 µM
[38]
  IC50: > 2 µM
[39]
  IC50: 0.707 µM
[40]
  IC50: > 2 µM
[41]
  IC50: 0.746 µM
[42]
  IC50: 1.53 µM
[43]
  IC50: > 2 µM
[44]
  IC50: 1.33 µM
[45]
  IC50: > 2 µM
[46]
  IC50: 0.343 µM
[47]
  IC50: > 2 µM

## O=C1N=C(NCc2cccs2)S/C1=C\c1ccc2ncccc2c1
[1]
  IC50: > 5 µM
[2]
  IC50: > 5 µM
[3]
  IC50: > 5 µM
[4]
  IC50: > 5 µM
[5]
  IC50: > 5 µM
[6]
  IC50: > 5 µM
[7]
  IC50: > 5 µM
[8]
  IC50: > 5 µM
[9]
  IC50: > 5 µM
[10]
  IC50: > 5 µM
[11]
  IC50: > 5 µM
[12]
  IC50: > 5 µM
[13]
  IC50: > 5 µM
[14]
  IC50: > 5 µM
[15]
  IC50: > 5 µM
[16]
  IC50: > 5 µM
[17]
  IC50: > 5 µM
[18]
  IC50: > 5 µM
[19]
  IC50: > 5 µM
[20]
  IC50: > 5 µM
[21]
  IC50: > 5 µM
[22]
  IC50: > 5 µM
[23]
  IC50: > 5 µM
[24]
  IC50: > 5 µM
[25]
  IC50: > 5 µM
[26]
  IC50: > 5 µM
[27]
  IC50: > 5 µM
[28]
  IC50: > 5 µM
[29]
  IC50: > 5 µM
[30]
  IC50: > 5 µM
[31]
  IC50: > 5 µM
[32]
  IC50: > 5 µM
[33]
  IC50: > 5 µM
[34]
  IC50: > 5 µM
[35]
  IC50: > 5 µM
[36]
  IC50: > 5 µM
[37]
  IC50: > 5 µM
[38]
  IC50: > 5 µM
[39]
  IC50: > 5 µM
[40]
  IC50: 2.28 µM
[41]
  IC50: > 5 µM
[42]
  IC50: > 5 µM
[43]
  IC50: > 5 µM
[44]
  IC50: > 5 µM
[45]
  IC50: > 5 µM
[46]
  IC50: > 5 µM
[47]
  IC50: > 5 µM

## COc1ccc(C2=N[C@@H](c3ccc(Cl)cc3)[C@@H](c3ccc(Cl)cc3)N2C(=O)N2CCNC(=O)C2)c(OC(C)C)c1 [NUTLIN-3]
[1]
  IC50: > 8 µM
[2]
  IC50: 2.97 µM
[3]
  IC50: 6.22 µM
[4]
  IC50: > 8 µM
[5]
  IC50: > 8 µM
[6]
  IC50: 7.48 µM
[7]
  IC50: 2.59 µM
[8]
  IC50: > 8 µM
[9]
  IC50: > 8 µM
[10]
  IC50: 3.02 µM
[11]
  IC50: > 8 µM
[12]
  IC50: > 8 µM
[13]
  IC50: > 8 µM
[14]
  IC50: > 8 µM
[15]
  IC50: 5.86 µM
[16]
  IC50: 3.27 µM
[17]
  IC50: > 8 µM
[18]
  IC50: 1.79 µM
[19]
  IC50: > 8 µM
[20]
  IC50: > 8 µM
[21]
  IC50: > 8 µM
[22]
  IC50: > 8 µM
[23]
  IC50: > 8 µM
[24]
  IC50: 3.12 µM
[25]
  IC50: 7.45 µM
[26]
  IC50: > 8 µM
[27]
  IC50: > 8 µM
[28]
  IC50: > 8 µM
[29]
  IC50: > 8 µM
[30]
  IC50: > 8 µM
[31]
  IC50: 6.42 µM
[32]
  IC50: > 8 µM
[33]
  IC50: 3.74 µM
[34]
  IC50: > 8 µM
[35]
  IC50: > 8 µM
[36]
  IC50: > 8 µM
[37]
  IC50: > 8 µM
[38]
  IC50: > 8 µM
[39]
  IC50: > 8 µM
[40]
  IC50: > 8 µM
[41]
  IC50: 3.13 µM
[42]
  IC50: > 8 µM
[43]
  IC50: > 8 µM
[44]
  IC50: > 8 µM
[45]
  IC50: > 8 µM
[46]
  IC50: 2.54 µM
[47]
  IC50: > 8 µM
